Data published in ChEMBL document CHEMBL1201861, “Genomics of Drug Sensitity in Cancer screening data, Wellcome Trust Sanger Institute”.

What was measured:
Assay in all cases: cells
Conditions in all cases: Homo sapiens
CAL-33 = type: functional, cell-based;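 further: growth inhibition of CAL-33 cells, read out with a cell viability assay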
Description: SANGER: Inhibition of human CAL-33 cell growth in a cell viability assay.

SNU-449 = type: functional, cell-based
Description: SANGER: Inhibition of human SNU-449 cell growth in a cell viability assay.

D-247MG = type: functional, cell-based
Description: SANGER: Inhibition of human D-247MG cell growth in a cell viability assay.

GP5d = type: functional, cell-based;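 further: growth inhibition of human GP5d cells, read out with a cell viability assay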
Description: SANGER: Inhibition of human GP5d cell growth in a cell viability assay.

TCC-SUP = type: functional, cell-based;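 further: growth inhibition of TCC-SUP cells, read out with a cell viability assay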
Description: SANGER: Inhibition of human TCCSUP cell growth in a cell viability assay.

CAL-120 = type: functional, cell-based;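 further: cell growth inhibition, read out as cell viability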
Description: SANGER: Inhibition of human CAL-120 cell growth in a cell viability assay.

SW13 = type: functional, cell-based;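 further: IC50 is inhibition of SW13 cell growth, read out with a cell viability assay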
Description: SANGER: Inhibition of human SW13 cell growth in a cell viability assay.

SW1088 = type: functional, cell-based;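 further: growth inhibition of human SW1088 cells, read out by a cell viability assay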
Description: SANGER: Inhibition of human SW1088 cell growth in a cell viability assay.

D-336MG = type: functional, cell-based
Description: SANGER: Inhibition of human D-336MG cell growth in a cell viability assay.

HuCCT-1 = type: functional, cell-based, HuCCT1;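 further: growth inhibition of HuCCT-1 cells, read out by a cell viability assay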
Description: SANGER: Inhibition of human HuCCT1 cell growth in a cell viability assay.

HCC1569 = type: functional, cell-based;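 further: growth inhibition of human HCC1569 cells, read out with a cell viability assay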
Description: SANGER: Inhibition of human HCC1569 cell growth in a cell viability assay.

COLO-679 = type: functional, cell-based
Description: SANGER: Inhibition of human COLO-679 cell growth in a cell viability assay.

CAL-27 = type: functional, cell-based;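 further: Viability-based readout, IC50 reflecting inhibition of CAL-27 cell growth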
Description: SANGER: Inhibition of human CAL-27 cell growth in a cell viability assay.

SJRH30 = type: functional, cell-based;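 further: growth inhibition of human SJRH30 cells, read out with a cell viability assay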
Description: SANGER: Inhibition of human SJRH30 cell growth in a cell viability assay.

CAL-85-1 = type: functional, cell-based;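 further: growth inhibition of human CAL-85-1 cells, read out with a cell viability assay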
Description: SANGER: Inhibition of human CAL-85-1 cell growth in a cell viability assay.

KYSE-140 = type: functional, cell-based;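 further: cell viability assay measuring growth inhibition in human KYSE-140 cells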
Description: SANGER: Inhibition of human KYSE-140 cell growth in a cell viability assay.

D-542MG = type: functional, cell-based
Description: SANGER: Inhibition of human D-542MG cell growth in a cell viability assay.

NCI-H2087 = type: functional, cell-based;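 further: growth inhibition determined with a cell viability readout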
Description: SANGER: Inhibition of human NCI-H2087 cell growth in a cell viability assay.

LoVo = type: functional, cell-based;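 further: growth inhibition of human LoVo cells, read out with a cell viability assay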
Description: SANGER: Inhibition of human LoVo cell growth in a cell viability assay.

PANC-03-27 = type: functional, cell-based
Description: SANGER: Inhibition of human PANC-03-27 cell growth in a cell viability assay.

MKN-1 = type: functional, cell-based;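 further: growth inhibition of human MKN1 cells, read out by a cell viability measurement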
Description: SANGER: Inhibition of human MKN1 cell growth in a cell viability assay.

BHY = type: functional, cell-based;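 further: cell growth inhibition read out by a viability assay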
Description: SANGER: Inhibition of human BHY cell growth in a cell viability assay.

OVCAR-8 = type: functional, cell-based;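 further: growth inhibition of human OVCAR-8 cells, read out by a cell viability assay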
Description: SANGER: Inhibition of human OVCAR-8 cell growth in a cell viability assay.

CAL-51 = type: functional, cell-based;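 further: human CAL-51 cell line, growth inhibition read out via a cell viability assay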
Description: SANGER: Inhibition of human CAL-51 cell growth in a cell viability assay.

COLO-741 = type: functional, cell-based
Description: SANGER: Inhibition of human COLO-741 cell growth in a cell viability assay.

UMUC3 = type: functional, cell-based;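 further: growth inhibition of human UM-UC-3 cells, read out with a cell viability assay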
Description: SANGER: Inhibition of human UM-UC-3 cell growth in a cell viability assay.

Capan-2 = type: functional, cell-based;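 further: Capan-2 cell growth inhibition, read out with a viability assay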
Description: SANGER: Inhibition of human Capan-2 cell growth in a cell viability assay.

SN12C = type: functional, cell-based;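 further: growth inhibition of human SN12C cells, measured by a cell viability assay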
Description: SANGER: Inhibition of human SN12C cell growth in a cell viability assay.

COLO-680N = type: functional, cell-based;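 further: cell viability assay used to measure inhibition of COLO-680N cell growth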
Description: SANGER: Inhibition of human COLO-680N cell growth in a cell viability assay.

G-402 = type: functional, cell-based
Description: SANGER: Inhibition of human G-402 cell growth in a cell viability assay.

NCI-H2347 = type: functional, cell-based;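 further: growth inhibition of the cell line, read out with a cell viability assay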
Description: SANGER: Inhibition of human NCI-H2347 cell growth in a cell viability assay.

NCI-H1703 = type: functional, cell-based;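 further: growth inhibition of NCI-H1703 cells, read out via a cell viability assay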
Description: SANGER: Inhibition of human NCI-H1703 cell growth in a cell viability assay.

769-P = type: functional, cell-based
Description: SANGER: Inhibition of human 769-P cell growth in a cell viability assay.

OE33 = type: functional, cell-based;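 further: growth inhibition of human OE33 cells, measured by a cell viability assay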
Description: SANGER: Inhibition of human OE33 cell growth in a cell viability assay.

Huh-7 = type: functional, cell-based;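 further: HuH-7 cell growth inhibition, read out with a cell viability assay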
Description: SANGER: Inhibition of human HuH-7 cell growth in a cell viability assay.

SK-N-AS = type: functional, cell-based;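 further: growth inhibition of human SK-N-AS cells, measured with a cell viability assay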
Description: SANGER: Inhibition of human SK-N-AS cell growth in a cell viability assay.

PFSK-1 = type: functional, cell-based;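 further: cell viability assay measuring how strongly compounds suppress growth of human PFSK-1 cells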
Description: SANGER: Inhibition of human PFSK-1 cell growth in a cell viability assay.

NCI-H2452 = type: functional, cell-based;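 further: growth inhibition of NCI-H2452 cells, read out with a cell viability assay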
Description: SANGER: Inhibition of human NCI-H2452 cell growth in a cell viability assay.

A-427 = type: functional, cell-based;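 further: growth inhibition of human A-427 cells, read out by a cell viability assay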
Description: SANGER: Inhibition of human A427 cell growth in a cell viability assay.

NCI-H1693 = type: functional, cell-based;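 further: growth inhibition of the human cell line, read out with a cell viability assay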
Description: SANGER: Inhibition of human NCI-H1693 cell growth in a cell viability assay.

SW 1116 = type: functional, cell-based;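 further: growth inhibition of SW1116 cells, read out with a cell viability assay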
Description: SANGER: Inhibition of human SW1116 cell growth in a cell viability assay.

D-392MG = type: functional, cell-based
CAKI-1 = type: functional, cell-based;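 further: growth inhibition of CAKI-1 cells, measured by a cell viability assay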
Description: SANGER: Inhibition of human CAKI-1 cell growth in a cell viability assay.

KOSC-2 = type: functional, cell-based;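 further: growth inhibition of KOSC-2 cells, read out by a cell viability assay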
Description: SANGER: Inhibition of human KOSC-2 cell growth in a cell viability assay.

CCCS(=O)(=O)Nc1ccc(F)c(C(=O)c2c[nH]c3ncc(Cl)cc23)c1F [PLX-4720]
IC50 (CAL-33): > 10000 nM | IC50 (SNU-449): > 10000 nM | IC50 (D-247MG): > 10000 nM | IC50 (GP5d): > 10000 nM | IC50 (TCC-SUP): > 10000 nM | IC50 (CAL-120): > 10000 nM | IC50 (SW13): > 10000 nM | IC50 (SW1088): > 10000 nM | IC50 (D-336MG): > 10000 nM | IC50 (HuCCT-1): > 10000 nM | IC50 (HCC1569): > 10000 nM | IC50 (COLO-679): 1100 nM | IC50 (CAL-27): > 10000 nM | IC50 (SJRH30): > 10000 nM | IC50 (CAL-85-1): > 10000 nM | IC50 (KYSE-140): > 10000 nM | IC50 (D-542MG): > 10000 nM | IC50 (NCI-H2087): > 10000 nM | IC50 (LoVo): > 10000 nM | IC50 (PANC-03-27): > 10000 nM | IC50 (MKN-1): > 10000 nM | IC50 (BHY): > 10000 nM | IC50 (OVCAR-8): > 10000 nM | IC50 (CAL-51): > 10000 nM | IC50 (COLO-741): 8020 nM | IC50 (UMUC3): > 10000 nM | IC50 (Capan-2): > 10000 nM | IC50 (SN12C): > 10000 nM | IC50 (COLO-680N): > 10000 nM | IC50 (G-402): > 10000 nM | IC50 (NCI-H2347): > 10000 nM | IC50 (NCI-H1703): > 10000 nM | IC50 (769-P): > 10000 nM | IC50 (OE33): > 10000 nM | IC50 (Huh-7): > 10000 nM | IC50 (SK-N-AS): > 10000 nM | IC50 (PFSK-1): > 10000 nM | IC50 (NCI-H2452): > 10000 nM | IC50 (A-427): > 10000 nM | IC50 (NCI-H1693): > 10000 nM | IC50 (SW 1116): > 10000 nM | IC50 (D-392MG): > 10000 nM | IC50 (CAKI-1): > 10000 nM | IC50 (KOSC-2): > 10000 nM

CC[C@]1(O)C[C@@H]2CN(CCc3c([nH]c4ccccc34)[C@@](C(=O)OC)(c3cc4c(cc3OC)N(C)[C@H]3[C@@](O)(C(=O)OC)[C@H](OC(C)=O)[C@]5(CC)C=CCN6CC[C@]43[C@@H]65)C2)C1 [VINBLASTINE]
IC50 (CAL-33): 6.18 nM | IC50 (SNU-449): > 100 nM | IC50 (D-247MG): 6.98 nM | IC50 (GP5d): 4.67 nM | IC50 (TCC-SUP): 23.6 nM | IC50 (CAL-120): 87.3 nM | IC50 (SW13): 5.49 nM | IC50 (SW1088): 17 nM | IC50 (D-336MG): 7.25 nM | IC50 (HuCCT-1): 17.3 nM | IC50 (HCC1569): 92.3 nM | IC50 (COLO-679): > 100 nM | IC50 (CAL-27): 2.09 nM | IC50 (SJRH30): 59.4 nM | IC50 (CAL-85-1): > 100 nM | IC50 (KYSE-140): 44.9 nM | IC50 (D-542MG): > 100 nM | IC50 (NCI-H2087): 30.5 nM | IC50 (LoVo): 6.03 nM | IC50 (PANC-03-27): 5.47 nM | IC50 (MKN-1): 10.1 nM | IC50 (BHY): 15.3 nM | IC50 (OVCAR-8): 6.55 nM | IC50 (CAL-51): 16.4 nM | IC50 (COLO-741): 2.14 nM | IC50 (UMUC3): 5.11 nM | IC50 (Capan-2): > 100 nM | IC50 (SN12C): 16.1 nM | IC50 (COLO-680N): 74.7 nM | IC50 (G-402): 17.6 nM | IC50 (NCI-H2347): > 100 nM | IC50 (NCI-H1703): 1.43 nM | IC50 (769-P): 25.6 nM | IC50 (OE33): 28.6 nM | IC50 (Huh-7): 87.7 nM | IC50 (SK-N-AS): 8.67 nM | IC50 (PFSK-1): 4.97 nM | IC50 (NCI-H2452): 9.59 nM | IC50 (A-427): 12.5 nM | IC50 (NCI-H1693): 78.2 nM | IC50 (SW 1116): > 100 nM | IC50 (D-392MG): 18.9 nM | IC50 (CAKI-1): 24.6 nM | IC50 (KOSC-2): 0.698 nM

O=c1cc(N2CCOCC2)oc2c(-c3cccc4c3sc3ccccc34)cccc12
IC50 (CAL-33): > 2000 nM | IC50 (SNU-449): > 2000 nM | IC50 (D-247MG): > 2000 nM | IC50 (GP5d): > 2000 nM | IC50 (TCC-SUP): > 2000 nM | IC50 (CAL-120): > 2000 nM | IC50 (SW13): > 2000 nM | IC50 (SW1088): > 2000 nM | IC50 (D-336MG): > 2000 nM | IC50 (HuCCT-1): > 2000 nM | IC50 (HCC1569): > 2000 nM | IC50 (COLO-679): > 2000 nM | IC50 (CAL-27): > 2000 nM | IC50 (SJRH30): > 2000 nM | IC50 (CAL-85-1): > 2000 nM | IC50 (KYSE-140): > 2000 nM | IC50 (D-542MG): > 2000 nM | IC50 (NCI-H2087): > 2000 nM | IC50 (LoVo): 867 nM | IC50 (PANC-03-27): > 2000 nM | IC50 (MKN-1): > 2000 nM | IC50 (BHY): > 2000 nM | IC50 (OVCAR-8): > 2000 nM | IC50 (CAL-51): > 2000 nM | IC50 (COLO-741): > 2000 nM | IC50 (UMUC3): > 2000 nM | IC50 (Capan-2): > 2000 nM | IC50 (SN12C): > 2000 nM | IC50 (COLO-680N): > 2000 nM | IC50 (G-402): > 2000 nM | IC50 (NCI-H2347): > 2000 nM | IC50 (NCI-H1703): > 2000 nM | IC50 (769-P): > 2000 nM | IC50 (OE33): > 2000 nM | IC50 (Huh-7): > 2000 nM | IC50 (SK-N-AS): 622 nM | IC50 (PFSK-1): > 2000 nM | IC50 (NCI-H2452): > 2000 nM | IC50 (A-427): > 2000 nM | IC50 (NCI-H1693): > 2000 nM | IC50 (SW 1116): > 2000 nM | IC50 (D-392MG): > 2000 nM | IC50 (CAKI-1): > 2000 nM | IC50 (KOSC-2): > 2000 nM

C[C@]12O[C@H](C[C@]1(O)CO)n1c3ccccc3c3c4c(c5c6ccccc6n2c5c31)CNC4=O [LESTAURTINIB]
IC50 (CAL-33): 730 nM | IC50 (SNU-449): > 2000 nM | IC50 (D-247MG): 528 nM | IC50 (GP5d): 177 nM | IC50 (TCC-SUP): 1850 nM | IC50 (CAL-120): 336 nM | IC50 (SW13): 617 nM | IC50 (SW1088): 874 nM | IC50 (D-336MG): 193 nM | IC50 (HuCCT-1): 862 nM | IC50 (HCC1569): > 2000 nM | IC50 (COLO-679): 383 nM | IC50 (CAL-27): 437 nM | IC50 (SJRH30): 1890 nM | IC50 (CAL-85-1): > 2000 nM | IC50 (KYSE-140): 449 nM | IC50 (D-542MG): > 2000 nM | IC50 (NCI-H2087): > 2000 nM | IC50 (LoVo): 31.9 nM | IC50 (PANC-03-27): 342 nM | IC50 (MKN-1): > 2000 nM | IC50 (BHY): 872 nM | IC50 (OVCAR-8): 753 nM | IC50 (CAL-51): 278 nM | IC50 (COLO-741): 1430 nM | IC50 (UMUC3): 1150 nM | IC50 (Capan-2): > 2000 nM | IC50 (SN12C): 398 nM | IC50 (COLO-680N): > 2000 nM | IC50 (G-402): 1100 nM | IC50 (NCI-H2347): > 2000 nM | IC50 (NCI-H1703): 345 nM | IC50 (769-P): 1610 nM | IC50 (OE33): > 2000 nM | IC50 (Huh-7): > 2000 nM | IC50 (SK-N-AS): 145 nM | IC50 (PFSK-1): > 2000 nM | IC50 (NCI-H2452): 1540 nM | IC50 (A-427): 23.4 nM | IC50 (NCI-H1693): > 2000 nM | IC50 (SW 1116): > 2000 nM | IC50 (D-392MG): 593 nM | IC50 (CAKI-1): 334 nM | IC50 (KOSC-2): 327 nM
